PMC7011955, “Synthesis and biological evaluation of certain hydrazonoindolin-2-one derivatives as new potent anti-proliferative agents” (Journal of Enzyme Inhibition and Medicinal Chemistry, 2018)
Like-named read-outs stand apart in the source and are kept apart here.

Experiments:
[1] = test system: lung cancer A-549 cell line; assay: CellTiter-Glo Luminescent cell viability assay, anti-proliferative activity, A-549; type: cell-based, human; conditions: for IC50: read-out: IC50 A-549; for inhibition at 30 µM: A549, 30 µM single concentration, quadruplicate, read-out: Growth inhibition % A-549
Protocol: (§1) The anti-proliferative activity of the title compounds 3a-e, 5a-e, 7a-c, and 10a-l towards cancer cell lines, normal cell lines, and multidrug-resistant lung cancer NCI-H69AR cell line was determined using CellTiter-Glo™ Luminescent cell viability assay according to the previously published procedures[14]^,[15].
(§2) The cancer cell growth inhibitory activity of the synthesised 25 compounds 3a-e, 5a-e, 7a-c, and 10a-l was evaluated in vitro towards three human cancer cell lines, namely lung cancer A-549, human colon cancer HT-29, and breast cancer ZR-75 cell lines using CellTiter-Glo™ Luminescent cell viability assay. Sunitinib was included in this assay as a reference drug.
(§3) The prepared hydrazonoindolin-2-ones were first evaluated at preliminary anti-proliferative assay against the three cancer cell lines in quadruplicate at a single concentration of 30 µM. The data presented as percentage growth inhibition (GI%) caused by the test compounds (Table 1).

[2] = test system: breast cancer ZR-75 cell line; assay: CellTiter-Glo Luminescent cell viability assay, anti-proliferative activity, ZR-75; type: cell-based; conditions: Homo sapiens, ZR75; 30 µM single concentration, quadruplicate; read-out: Growth inhibition % ZR-75
Protocol: as §1, §2, §3

[3] = test system: A-549, ZR-75 and HT-29 cell lines; assay: Average anti-proliferative activity over the three cancer cell lines; type: cell-based, human; conditions: average over A-549, ZR-75, HT-29; for inhibition at 30 µM / IC50: Homo sapiens; for inhibition at 30 µM: read-out: Average growth inhibition %; for inhibition at 30 µM / Average growth inhibition %: 30 µM
Protocol: as §1, §2, §3

[4] = test system: colon cancer HT-29 cell line; assay: CellTiter-Glo Luminescent cell viability assay, anti-proliferative activity, HT-29; type: cell-based; conditions: Homo sapiens, mean ± SD of four separate experiments
[5] = test system: breast cancer ZR-75 cell line; assay: CellTiter-Glo Luminescent cell viability assay, anti-proliferative activity, ZR-75; type: cell-based, human
[6] = test system: colon cancer HT-29 cell line; assay: CellTiter-Glo Luminescent cell viability assay, anti-proliferative activity, HT-29; type: cell-based, human; conditions: 30 µM single concentration, quadruplicate; for inhibition at 30 µM: Homo sapiens, HT-29, read-out: Growth inhibition % HT-29
Protocol: as §1, §2, §3

[7] = Homo sapiens, A549, mean ± SD of four separate experiments
[8] = Homo sapiens, ZR75, mean ± SD of four separate experiments
[9] = mean ± SD of four separate experiments

Compound | melting point [°C] | IC50 [1, 7] [µM] | inhibition at 30 µM ([1]; Homo sapiens) [%] | inhibition at 30 µM [2] [%] | inhibition at 30 µM [3] [%] | IC50 [3] [µM] | IC50 [4] [µM] | IC50 [5, 8] [µM] | IC50 [5, 9] [µM] | inhibition at 30 µM [6] [%] | Average growth inhibition % [3] [%] | Growth inhibition % HT-29 [6] | IC50 ([5]; mean ± SD of four separate experiments, listed as 4d) [µM] | IC50 [1, 9] [µM]
O=C1Nc2ccccc2C1=NN=Cc1ccn[nH]1 [Compound 7a, 3-(((1H-pyrazol-5-yl)methylene)hydrazono)indolin-2-one] | 283 to 285 | 22.9 ± 3.51 | 8.2 ± 15.1 | 60.1 ± 5.8 | 43 | > 27.7 | > 30 | > 30 | > 30 | 60.8 ± 13.1 |  |  |  | 
COC(=O)c1ccc(C=NN=C2C(=O)Nc3ccccc32)cc1 [Compound 3b, Methyl 4-(((2-oxoindolin-3-ylidene)hydrazono)methyl)benzoate] | 225 to 227 | 11.2 ± 1.45 | 68.1 ± 2.8 | 80.6 ± 7 | > 80 | 14 | 21.1 ± 1.86 | 9.72 ± 2.52 |  | 92.3 ± 3.7 | 80.3 |  |  | 
O=C1Nc2ccc(Cl)cc2C1=NNc1nc(-c2ccc(Br)cc2)cs1 [Compound 10h, 3–(2-(4–(4-Bromophenyl)thiazol-2-yl)hydrazono)-5-chloroindolin-2-one] | > 300 |  | -2.6 ± 7.5 | 9 ± 19.2 |  |  |  |  |  | -8.3 ± 43.8 |  | stimulated the growth |  | 
O=C1Nc2ccc(Cl)cc2C1=NN=Cc1nccs1 [Compound 5b, 5-Chloro-3-((thiazol-2-ylmethylene)hydrazono)indolin-2-one] | 293 to 295 | 4.87 ± 0.49 | 93.6 ± 5.4 | 95 ± 8.2 | 94.9 | 4.37 | 6.15 ± 0.51 | 2.09 ± 0.12 |  | 96.2 ± 4.5 |  |  |  | 
Cc1csc(C=NN=C2C(=O)Nc3ccccc32)n1 [Compound 5a, 3-(((4-Methylthiazol-2-yl)methylene)hydrazono)indolin-2-one] | 238 to 240 |  | 2.4 ± 5 | 40.8 ± 25.7 | < 35 |  |  |  |  | 37.9 ± 26.3 | 27.0 |  |  | 
O=C1Nc2ccc(Br)cc2C1=NNc1nc(-c2ccc(Br)cc2)cs1 [Compound 10l, 5-Bromo-3–(2-(4–(4-bromophenyl)thiazol-2-yl)hydrazono)indolin-2-one] | > 300 |  | -20.1 ± 5.9 | 40.9 ± 16.7 | < 35 |  |  |  |  | 27.8 ± 4.3 | 34.4 |  |  | 
O=C1Nc2ccc(Br)cc2C1=NNc1nc(-c2ccccc2)cs1 [Compound 10i, 5-Bromo-3–(2-(4-phenylthiazol-2-yl)hydrazono)indolin-2-one] | 285 to 287 | 6.13 ± 0.76 | 92.3 ± 6.2 | 97.5 ± 3.1 | > 80 | 5.45 | 8.26 ± 0.86 | 1.96 ± 0.85 |  | 96.3 ± 5.9 | 95.4 |  |  | 
O=C1Nc2ccccc2C1=NNc1nc(-c2ccc(Br)cc2)cs1 [Compound 10d, 3–(2-(4–(4-Bromophenyl)thiazol-2-yl)hydrazono)indolin-2-one] |  |  | 12.3 ± 11.3 | 53.8 ± 19.2 | < 35 |  |  |  |  | 20.6 ± 26.9 | 28.9 |  |  | 
CC(=O)c1ccc(C=NN=C2C(=O)Nc3ccc(Br)cc32)cc1 [Compound 3d, 3-((4-Acetylbenzylidene)hydrazono)-5-bromoindolin-2-one] | 270 to 272 | 26.1 ± 4.47 | 17.3 ± 10.2 | 53.9 ± 14.4 | 42.7 | > 28.7 | > 30 | > 30 |  | 56.8 ± 15.1 |  |  | > 30 | 
O=C1Nc2ccccc2C1=NNc1nc(-c2ccc(Cl)cc2)cs1 [Compound 10c, 3–(2-(4–(4-Chlorophenyl)thiazol-2-yl)hydrazono)indolin-2-one] | 295 to 297 | 17.2 ± 2.56 | 31.4 ± 9.1 | 77.1 ± 10.9 | 64.6 | > 17.4 | > 30 | 4.89 |  | 85.4 ± 7 |  |  |  | 
O=C1Nc2ccc(Br)cc2C1=NNc1nc(-c2ccc(Cl)cc2)cs1 [Compound 10k, 5-Bromo-3–(2-(4–(4-chlorophenyl)thiazol-2-yl)hydrazono)indolin-2-one] | > 300 | 20.1 ± 3.81 | 72.4 ± 3.5 | 50.6 ± 11.5 | 63.3 | 14.5 | 19.8 ± 1.63 | 3.61 |  | 66.8 ± 19.1 |  |  |  | 
O=C1Nc2ccc(Br)cc2C1=NN=Cc1ccn[nH]1 [Compound 7c, 3-(((1H-pyrazol-5-yl)methylene)hydrazono)-5-bromoindolin-2-one] | 264 to 266 |  | 32.8 ± 8.9 | 19.2 ± 22.8 | < 35 |  |  |  |  | 28.8 ± 17.3 | 26.9 |  |  | 
COC(=O)c1ccc(C=NN=C2C(=O)Nc3ccc(Br)cc32)cc1 [Compound 3e, Methyl 4-(((5-bromo-2-oxoindolin-3-ylidene)hydrazono)methyl)benzoate] | 283 to 285 | > 30 | -4.2 ± 9.3 | 55.9 ± 18.2 | 41.1 | > 27.8 | > 30 | 23.3 |  | 26.3 ± 24.4 |  |  |  | > 30
Cc1csc(C=NN=C2C(=O)Nc3ccc(Cl)cc32)n1 [Compound 5c, 5-Chloro-3-(((4-methylthiazol-2-yl)methylene)hydrazono)indolin-2-one] | 290 to 292 | 2.15 ± 0.23 | 98.8 ± 1.5 | 98 ± 2.6 | 97.7 | 2.53 | 4.29 ± 0.25 | 1.16 ± 0.39 |  | 96.4 ± 4.8 |  |  |  | 
O=C1Nc2ccccc2C1=NNc1nc(-c2ccccc2)cs1 [Compound 10a, 3–(2-(4-Phenylthiazol-2-yl)hydrazono)indolin-2-one] |  | 9.41 ± 1.29 | 70.7 ± 5.7 | 76.9 ± 7.1 | 79.6 | 11.1 | 19.4 ± 1.03 | 4.35 |  | 91.2 ± 8.3 |  |  |  | 
CC(=O)c1ccc(C=NN=C2C(=O)Nc3ccccc32)cc1 [Compound 3a, 3-((4-Acetylbenzylidene)hydrazono)indolin-2-one] | 228 to 230 |  | 12.7 ± 7.1 | 29.6 ± 24.4 | < 35 | > 30 |  |  |  | 53.6 ± 12.2 | 32.0 |  |  | 
